The record followed here is patent US11654199B2 (BOLT BIOTHERAPEUTICS, INC., priority 2019, dated 2023).

As usually defined, the EC50 is the concentration that produces a half-maximal response.

One assay deals with T1, human TLR7 (Homo sapiens, UniProt Q9NYK1).
T1 construct: host or cells: HEK293 reporter cells
T1 sequence (Q9NYK1 27-1049): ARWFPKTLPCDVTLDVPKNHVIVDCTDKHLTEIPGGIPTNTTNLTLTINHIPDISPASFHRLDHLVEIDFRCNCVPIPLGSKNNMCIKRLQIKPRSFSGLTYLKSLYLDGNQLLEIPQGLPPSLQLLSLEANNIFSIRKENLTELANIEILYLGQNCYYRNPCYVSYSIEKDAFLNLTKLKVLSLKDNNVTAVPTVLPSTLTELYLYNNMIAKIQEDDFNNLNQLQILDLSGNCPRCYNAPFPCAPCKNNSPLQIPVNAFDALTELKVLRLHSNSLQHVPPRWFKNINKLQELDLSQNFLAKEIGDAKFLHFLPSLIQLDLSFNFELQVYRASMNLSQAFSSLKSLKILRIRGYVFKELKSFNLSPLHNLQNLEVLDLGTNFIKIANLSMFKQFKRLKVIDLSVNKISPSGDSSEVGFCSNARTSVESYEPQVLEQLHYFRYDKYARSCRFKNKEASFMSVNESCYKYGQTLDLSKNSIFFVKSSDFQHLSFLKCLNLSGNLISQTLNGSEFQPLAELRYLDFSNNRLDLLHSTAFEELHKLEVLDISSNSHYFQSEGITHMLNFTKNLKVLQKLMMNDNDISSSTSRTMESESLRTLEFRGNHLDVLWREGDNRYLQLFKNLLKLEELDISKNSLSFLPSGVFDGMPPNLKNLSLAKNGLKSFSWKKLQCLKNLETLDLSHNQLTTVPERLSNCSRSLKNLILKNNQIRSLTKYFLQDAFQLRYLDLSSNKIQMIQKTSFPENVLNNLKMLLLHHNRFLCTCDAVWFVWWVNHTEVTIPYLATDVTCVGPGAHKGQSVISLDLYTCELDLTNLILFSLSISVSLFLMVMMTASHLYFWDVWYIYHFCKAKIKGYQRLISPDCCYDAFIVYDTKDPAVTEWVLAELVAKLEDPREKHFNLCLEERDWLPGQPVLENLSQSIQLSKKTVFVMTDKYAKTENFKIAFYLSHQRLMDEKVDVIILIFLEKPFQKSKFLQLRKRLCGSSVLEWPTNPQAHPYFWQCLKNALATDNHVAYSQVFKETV
The assay is described as follows: HEK293 NFKB reporter assay, human TLR7. It counts as cell-based. The conditions noted are these: HEK293 NFKB reporter cells expressing human TLR7; read-out: HEK293 hTLR7 EC50. On the procedure:
(§1) Each compound was synthesized, purified, and characterized by mass spectrometry and shown to have the mass indicated. Additional experimental procedures are found in the Examples. Activity against HEK293 NFKB reporter cells expressing human TLR7 or human TLR8 was measured according to Example 202.
(§2) HEK293 reporter cells expressing human TLR7 or human TLR8 were purchased from Invivogen and vendor protocols were followed for cellular propagation and experimentation. Briefly, cells were grown to 80-85% confluence at 5% CO2 in DMEM supplemented with 10% FBS, Zeocin, and Blasticidin. Cells were then seeded in 96-well flat plates at 4×10^4 cells/well with substrate containing HEK detection medium and immunostimulatory molecules. Activity was measured using a plate reader at 620-655 nm wavelength.
For orientation: A reporter such as luciferase makes a cellular process visible.

The target in a further assay is T2, human TLR8 (Homo sapiens, UniProt Q9NR97).
T2 construct: host or cells: HEK293 reporter cells
T2 sequence (Q9NR97 27-1041): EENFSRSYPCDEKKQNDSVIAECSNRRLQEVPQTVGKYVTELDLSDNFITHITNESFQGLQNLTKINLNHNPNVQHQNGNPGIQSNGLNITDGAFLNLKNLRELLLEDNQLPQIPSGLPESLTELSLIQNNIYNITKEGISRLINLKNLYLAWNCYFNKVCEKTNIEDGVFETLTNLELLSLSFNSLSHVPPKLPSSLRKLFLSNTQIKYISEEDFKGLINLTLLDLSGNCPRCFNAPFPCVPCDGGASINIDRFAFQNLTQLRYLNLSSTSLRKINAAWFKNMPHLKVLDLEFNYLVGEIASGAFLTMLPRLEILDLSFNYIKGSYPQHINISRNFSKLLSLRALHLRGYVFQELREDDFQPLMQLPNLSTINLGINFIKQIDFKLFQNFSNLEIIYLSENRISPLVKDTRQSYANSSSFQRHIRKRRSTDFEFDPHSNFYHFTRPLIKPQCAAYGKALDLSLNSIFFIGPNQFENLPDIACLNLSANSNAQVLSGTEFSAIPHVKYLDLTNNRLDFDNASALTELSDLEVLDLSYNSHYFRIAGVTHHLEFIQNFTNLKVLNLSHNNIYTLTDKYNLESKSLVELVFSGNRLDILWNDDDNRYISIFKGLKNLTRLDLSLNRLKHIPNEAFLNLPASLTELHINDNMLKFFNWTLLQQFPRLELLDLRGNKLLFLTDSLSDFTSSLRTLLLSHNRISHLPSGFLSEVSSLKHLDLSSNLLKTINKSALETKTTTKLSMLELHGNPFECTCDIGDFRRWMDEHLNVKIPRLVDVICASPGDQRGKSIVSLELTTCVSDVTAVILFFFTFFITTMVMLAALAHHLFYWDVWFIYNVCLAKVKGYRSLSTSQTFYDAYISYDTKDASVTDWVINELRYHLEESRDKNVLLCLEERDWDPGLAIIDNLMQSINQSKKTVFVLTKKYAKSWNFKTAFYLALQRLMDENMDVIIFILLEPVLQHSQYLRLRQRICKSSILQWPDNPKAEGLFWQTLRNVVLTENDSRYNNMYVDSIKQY
As to the kind of experiment: HEK293 NFKB reporter assay, human TLR8. It counts as cell-based. The conditions noted are these: HEK293 NFKB reporter cells expressing human TLR8; read-out: HEK293 hTLR8 EC50. As to the method: as §1, §2

In the case of `CCCN(Cc1ccc(CN)c(C(F)(F)F)c1)C(=O)C1=Cc2sccc2N=C(N)C1`, the EC50 stood at 0.905 µM at human TLR7 and 0.035 µM on human TLR8.

Regarding `CCCN(CCC)C(=O)C1=Cc2sc(C#CCCCNC(=O)OC(C)(C)C)cc2N=C(N)C1` [TAZ-6, tert-butyl N-[5-[5-amino-7-(dipropylcarbamoyl)-6H-thieno[3,2-b]azepin-2-yl]pent-4-ynyl] carbamate], the EC50 on human TLR7 and at human TLR8 was greater than 9 µM each time.

For the compound `CCCN(CCCNC(=O)OC(C)(C)C)C(=O)C1=Cc2sccc2N=C(N)C1` [TAZ-8, tert-butyl N-[3-[(5-amino-6H-thieno[3,2-b]azepine-7-carbonyl)-propyl-amino]propyl]carbamate], the EC50 at human TLR7 is 0.589 µM; on human TLR8, 1.53 µM.

`CCCN(CC#CCNC(=O)OC(C)(C)C)C(=O)C1=Cc2sc(Br)cc2N=C(N)C1` [TAZ-10, tert-butyl N-[4-[(5-amino-2-bromo-6H-thieno[3,2-b]azepine-7-carbonyl)-propyl-amino]but-2-ynyl]carbamate]: at human TLR7, the EC50 is 7.77 µM.

On to `CCCN(CCC)C(=O)C1=Cc2sc(C(=O)NCCCNC(=O)OC(C)(C)C)cc2N=C(N)C1` [TAZ-31], for which the EC50 at human TLR7 and at human TLR8 was greater than 9 µM in each case.

On to `CCCN(CCC)C(=O)C1=Cc2sc(C(=O)NCCCN)cc2N=C(N)C1` [TAZ-32], for which the concentration giving a half-maximal response (EC50) on human TLR7 and at human TLR8 was greater than 9 µM each time.

Take `CCCN(CCC)C(=O)C1=Cc2sc(C#CCCCN)cc2N=C(N)C1` [TAZ-33]: the EC50 on human TLR7 and at human TLR8 was greater than 9 µM in each case.

For the compound `CCCN(Cc1ccc(CN2CCN(C(=O)OC(C)(C)C)CC2)cc1)C(=O)C1=Cc2sccc2N=C(N)C1` [TAZ-34], the EC50 on human TLR7 is greater than 9 µM; at human TLR8, 0.339 µM.

Take `CCCN(CCC)C(=O)C1=Cc2sc(C#CCCN)cc2N=C(N)C1` [TAZ-35]: the figures for the EC50 at human TLR7 and on human TLR8 were greater than 9 µM and 2.87 µM, respectively.

For `CCCN(CCC)C(=O)C1=Cc2sc(CCCCNC(=O)OC(C)(C)C)cc2N=C(N)C1` [TAZ-36], the EC50 at human TLR7 was 8.52 µM; on human TLR8, greater than 9 µM.

With `CCCN(Cc1ccc(CN2CCNCC2)cc1)C(=O)C1=Cc2sccc2N=C(N)C1` [TAZ-37], the EC50 at human TLR7 is greater than 9 µM.

Turning to `CCCN(CCC)C(=O)C1=Cc2sc(CCCCN)cc2N=C(N)C1` [TAZ-38], the EC50 was 4.15 µM at human TLR7 and 3.75 µM on human TLR8.

Turning to `CCCN(Cc1ccccc1)C(=O)C1=Cc2sccc2N=C(N)C1` [TAZ-39], the EC50 on human TLR7 and at human TLR8 was greater than 9 µM throughout.

For the compound `CCCN(CC12CC(CNC(=O)OC(C)(C)C)(C1)C2)C(=O)C1=Cc2sccc2N=C(N)C1` [TAZ-40], the EC50 at human TLR7 and at human TLR8 was greater than 9 µM throughout.

For `CCCN(CC12CC(CN)(C1)C2)C(=O)C1=Cc2sccc2N=C(N)C1` [TAZ-41], the concentration for a half-maximal effect (EC50) on human TLR7 and at human TLR8 was greater than 9 µM each time.

As to `CCCN(Cc1ccc(CNC(=O)OC(C)(C)C)cn1)C(=O)C1=Cc2sccc2N=C(N)C1` [TAZ-42], the EC50 on human TLR7 and on human TLR8 was greater than 9 µM throughout.

With `CCCN(CCC)C(=O)C1=Cc2sc(CN3CCN(C(=O)OC(C)(C)C)CC3)cc2N=C(N)C1` [TAZ-43], the concentration giving a half-maximal response (EC50) on human TLR7 and at human TLR8 was greater than 9 µM throughout.

With `CCCN(CCC)C(=O)C1=Cc2sc(CN3CCNCC3)cc2N=C(N)C1` [TAZ-44], the EC50 at human TLR7 stood at 4.53 µM; on human TLR8 it was 0.593 µM.

Regarding `CCCN(Cc1ccc(CNC(C)=O)cc1)C(=O)C1=Cc2sccc2N=C(N)C1` [TAZ-45], the EC50 on human TLR7 was greater than 9 µM; at human TLR8 it was 1.78 µM.

Consider `CCCN(Cc1ccc(CNC(=O)CCOC)cc1)C(=O)C1=Cc2sccc2N=C(N)C1` [TAZ-46], for which the EC50 on human TLR7 was greater than 9 µM; on human TLR8 it was 1.58 µM.

As to `CCCN(CC12CC(CN(C)C)(C1)C2)C(=O)C1=Cc2sccc2N=C(N)C1` [TAZ-47], the EC50 at human TLR7 and at human TLR8 was greater than 9 µM in each case.

With `CCCN(C[C@H]1C[C@@H](CNC(=O)OC(C)(C)C)C1)C(=O)C1=Cc2sccc2N=C(N)C1` [TAZ-48], the EC50 at human TLR7 and on human TLR8 was greater than 9 µM each time.

As to `CCCN(CCC)C(=O)C1=Cc2sc(COCCCN)cc2N=C(N)C1` [TAZ-73], the EC50 at human TLR7 is greater than 9 µM.

Consider `CN(C)Cc1ccc(CN(CCC(F)(F)F)C(=O)C2=Cc3sc(CCCCCNC(=O)OC(C)(C)C)cc3N=C(N)C2)cc1` [TAZ-116], for which, on human TLR7, the EC50 came out at 1.62 µM.

On to `CCCN(C[C@H]1CC[C@@H](CNC(=O)OC(C)(C)C)CC1)C(=O)C1=Cc2sccc2N=C(N)C1` [TAZ-119], for which the EC50 on human TLR7 amounted to 2.88 µM.

For the compound `CCCN(C(=O)C1=Cc2sc(CCCCCNC(=O)OC(C)(C)C)cc2N=C(N)C1)C1CC1` [TAZ-123], the EC50 at human TLR7 was 4.63 µM.

With `CCCN(CC1CC1)C(=O)C1=Cc2sc(CCCCCNC(=O)OC(C)(C)C)cc2N=C(N)C1` [TAZ-125], the EC50 at human TLR7 turned out to be 2.71 µM.

Consider `CCCN(CCCNC(=O)CC(C)(C)C)C(=O)C1=Cc2sc(CN3CCNCC3)cc2N=C(N)C1` [TAZ-139], for which, at human TLR7, the half-maximal effective concentration (EC50) is 4.21 µM.

Take `CCCN(CCCNC(=O)C(C)(C)C)C(=O)C1=Cc2sc(CCCCCN)cc2N=C(N)C1` [TAZ-142]: on human TLR7, the EC50 was 0.827 µM.

`CCCN(Cc1ccc(CN(C)C)cc1C(F)(F)F)C(=O)C1=Cc2sc(CCCCCNC(=O)OC(C)(C)C)cc2N=C(N)C1` [TAZ-143]: at human TLR7, the EC50 amounted to 1.88 µM.

For the compound `CCCN(CCCNC(=O)OC1CCC1)C(=O)C1=Cc2sc(CCC3CCN(C(=O)OC(C)(C)C)CC3)cc2N=C(N)C1` [TAZ-167], the concentration giving a half-maximal response (EC50) at human TLR7 was 3.13 µM.

In the case of `CCCN(CCCNC(=O)OC1CCC1)C(=O)C1=Cc2sc(CN3CCNCC3)cc2N=C(N)C1` [TAZ-169], at human TLR7, the EC50 is 3.17 µM.

For the compound `CCCN(OCC)C(=O)C1=Cc2sc(C#CC3CCN(C(=O)OC(C)(C)C)CC3)cc2N=C(N)C1` [TAZ-173], the EC50 at human TLR7 was found to be 7.69 µM.

For `CCCN(CCCNC(=O)OC1CCC1)C(=O)C1=Cc2sc(CN3CCN(c4ccc(C(=O)OC)cc4)CC3)cc2N=C(N)C1` [TAZ-180], the EC50 on human TLR7 came out at 3.65 µM.

For `CCCN(CCCNC(=O)OC1CCC1)C(=O)C1=Cc2sc(CC3CNC3)cc2N=C(N)C1` [TAZ-181], on human TLR7, the EC50 was 2.03 µM.

As for `CCCN(CCCNC(=O)OC1CCC1)C(=O)C1=Cc2sc(CC3CCNCC3)cc2N=C(N)C1` [TAZ-185, cyclobutyl N-[3-[[5-amino-2-(4-piperidylmethyl)-6H-thieno[3,2-b]azepine-7-carbonyl]-propyl-amino]propyl]carbamate], the EC50 on human TLR7 was determined as 3.7 µM.

In the case of `CCCN(CCCNC(=O)OC1CCC1)C(=O)C1=Cc2sc(CCC3CNC3)cc2N=C(N)C1` [TAZ-197], at human TLR7, the EC50 came out at 1.81 µM.
